Laboratory results as given in article PMC11882969 (Nature Communications, 2025).
“And” between values parts separate entries of the source, which are not always exact repeats. Identical values can stand only once.

How the values were obtained:
hCB1 [1] = target: T1, hCB1 (Homo sapiens, UniProt P21554); experiment: Lance Ultra cAMP accumulation assay, CHO cells; format: cell-based; parameters: expressed in transfected cells;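 note: human CB1R stably expressed in CHO cells, ligands co-incubated with forskolin at room temperature, read-out is lowering of forskolin-stimulated cAMP accumulation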
CB1 (rCB1) = CB1 (rCB1) (Rattus norvegicus, UniProt P20272); experiment: Radioligand competition binding, [3H]-CP-55,940, rat brain membranes
hCB1 [2] = target: T1, hCB1; experiment: bioSensAll ebBRET signaling profiling, hCB1; format: cell-based; parameters: host or cells: HEK293SL cells, transient PEI transfection; conditions: for Gi1 hCB1 response: Gi1 biosensor; for Gi1 hCB1 / GoB hCB1: single replicate values, FigS6a; for EC50: read-out: EC50 [95% CI]; for Emax: normalized to CP-55,940

T1 sequence (P21554 whole entry): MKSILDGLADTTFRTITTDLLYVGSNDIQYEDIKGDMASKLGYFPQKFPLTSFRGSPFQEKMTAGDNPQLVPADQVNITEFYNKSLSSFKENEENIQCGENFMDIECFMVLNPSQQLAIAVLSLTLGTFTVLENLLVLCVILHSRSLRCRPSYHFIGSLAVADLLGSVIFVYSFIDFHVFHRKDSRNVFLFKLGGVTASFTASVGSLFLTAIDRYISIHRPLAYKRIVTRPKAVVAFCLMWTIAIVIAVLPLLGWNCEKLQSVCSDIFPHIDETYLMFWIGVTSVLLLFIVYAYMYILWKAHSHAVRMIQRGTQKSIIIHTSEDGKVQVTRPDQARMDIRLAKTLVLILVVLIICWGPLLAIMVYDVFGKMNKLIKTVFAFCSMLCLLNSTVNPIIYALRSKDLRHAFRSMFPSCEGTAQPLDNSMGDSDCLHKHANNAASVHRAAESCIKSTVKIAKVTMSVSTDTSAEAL
Chain of CB1 (rCB1) (P20272 whole entry): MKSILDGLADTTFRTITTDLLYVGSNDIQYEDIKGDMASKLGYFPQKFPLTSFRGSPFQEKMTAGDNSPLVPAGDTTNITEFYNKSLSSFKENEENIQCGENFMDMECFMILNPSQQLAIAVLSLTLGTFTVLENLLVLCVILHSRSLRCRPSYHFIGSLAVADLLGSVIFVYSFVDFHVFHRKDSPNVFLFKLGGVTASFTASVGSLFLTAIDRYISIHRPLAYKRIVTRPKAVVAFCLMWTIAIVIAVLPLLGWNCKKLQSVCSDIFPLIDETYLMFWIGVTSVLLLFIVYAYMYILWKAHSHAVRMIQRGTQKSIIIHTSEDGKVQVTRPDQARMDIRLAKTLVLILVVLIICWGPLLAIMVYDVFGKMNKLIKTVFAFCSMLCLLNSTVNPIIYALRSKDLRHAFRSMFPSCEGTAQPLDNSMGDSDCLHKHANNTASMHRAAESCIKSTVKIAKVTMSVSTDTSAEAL

Q: For `COC(=O)[C@](C)(NC(=O)c1cc(C)n(-c2cccc(C(F)(F)F)c2)n1)c1cccs1` [‘8690], which EC50 (hCB1 [1]) is on record?
A: 473 nM

Q: What about the “Lance Ultra cAMP pEC50” value (hCB1 [1]) of the same molecule?
A: 6.3 [5.8 – 7.0]

Q: What about the Emax (hCB1 [1]; CHO) of the same molecule?
A: 53%

Q: And the “pKi [95% CI]” value (CB1 (rCB1); rCB1)?
A: 7.1 [6.9 – 7.3]

Q: And the Ki (CB1 (rCB1); read-out: Ki [95% CI], rCB1, [3H]-CP-55,940)?
A: 90.2 nM

Q: What about the “Gi1 hCB1 response” value (hCB1 [2]; Log [Compound] (M) -4.63927) of the same molecule?
A: 107.576

Q: What about the “Gi1 hCB1 response” value (hCB1 [2]; Log [Compound] (M) -5.05788) of the same molecule?
A: 100.593

Q: What about the “Gi1 hCB1 response” value (hCB1 [2]; Log [Compound] (M) -5.47381) of the same molecule?
A: 88.91

Q: What about the “Gi1 hCB1 response” value (hCB1 [2]; Log [Compound] (M) -5.89285) of the same molecule?
A: 68.8562

Q: And the “Gi1 hCB1 response” value (hCB1 [2]; Log [Compound] (M) -6.31878)?
A: 81.5241

Q: What about the “Gi1 hCB1 response” value (hCB1 [2]; Log [Compound] (M) -6.72585) of the same molecule?
A: 77.4731

Q: And the “Gi1 hCB1 response” value (hCB1 [2]; Log [Compound] (M) -7.14267)?
A: 64.4023

Q: What about the “Gi1 hCB1 response” value (hCB1 [2]; Log [Compound] (M) -7.55284) of the same molecule?
A: 52.8535

Q: And the “Gi1 hCB1 response” value (hCB1 [2]; Log [Compound] (M) -8)?
A: 17.9832

Q: And the “Gi1 hCB1 response” value (hCB1 [2]; Log [Compound] (M) -8.22186)?
A: 31.0987

Q: And the “Gi1 hCB1 response” value (hCB1 [2]; Log [Compound] (M) -8.39794)?
A: 14.4917

Q: And the “Gi1 hCB1 response” value (hCB1 [2]; Log [Compound] (M) -8.68787)?
A: 15.566

Q: What about the “Gi1 hCB1 response” value (hCB1 [2]; Log [Compound] (M) -9.15521) of the same molecule?
A: 3.502

Q: And the “Gi1 hCB1 response” value (hCB1 [2]; Log [Compound] (M) -9.61989)?
A: 4.487

Q: And the “Gi1 hCB1 response” value (hCB1 [2]; Log [Compound] (M) -10.0969)?
A: -7.576

Q: And the “Gi1 hCB1 response” value (hCB1 [2]; Log [Compound] (M) -10.5529)?
A: -10.5308

Q: What about the “Gi1 hCB1 response” value (hCB1 [2]; Log [Compound] (M) -11.0177) of the same molecule?
A: -2.272

Q: And the “Gi1 hCB1 response” value (hCB1 [2]; Log [Compound] (M) -11.4949)?
A: -1.802

Q: What about the “Gi1 hCB1 response” value (hCB1 [2]; Log [Compound] (M) -11.9208) of the same molecule?
A: -1.466

Q: What about the “Gi1 hCB1 response” value (hCB1 [2]; Log [Compound] (M) -12.3979) of the same molecule?
A: 8.695

Q: What about the “Gi1 hCB1 response” value (hCB1 [2]; Log [Compound] (M) -12.8861) of the same molecule?
A: 6.367

Q: And the “Gi1 hCB1 response” value (hCB1 [2]; Log [Compound] (M) -13, individual replicate values)?
A: -3.951

Q: What about the “Gi1 hCB1” value (hCB1 [2]; Log [Compound] (M) -4.22186) of the same molecule?
A: 95.271 and 72.3781

Q: What about the “GoB hCB1” value (hCB1 [2]; Log [Compound] (M) -4.22186) of the same molecule?
A: 82.2993 and 86.8881

Q: And the “Gi1 hCB1” value (hCB1 [2]; Log [Compound] (M) -4.63927)?
A: 89.1198 and 73.8984

Q: And the “GoB hCB1” value (hCB1 [2]; Log [Compound] (M) -4.63927)?
A: 85.86 and 78.0511

Q: And the “Gi1 hCB1” value (hCB1 [2]; Log [Compound] (M) -5.05788)?
A: 89.7364 and 64.618

Q: What about the “GoB hCB1” value (hCB1 [2]; Log [Compound] (M) -5.05788) of the same molecule?
A: 82.8568 and 73.8497

Q: What about the “Gi1 hCB1” value (hCB1 [2]; Log [Compound] (M) -5.47381) of the same molecule?
A: 86.2831 and 71.6021

Q: What about the “GoB hCB1” value (hCB1 [2]; Log [Compound] (M) -5.47381) of the same molecule?
A: 95.4631 and 77.0615

Q: And the “Gi1 hCB1” value (hCB1 [2]; Log [Compound] (M) -5.89285)?
A: 88.8731 and 77.0341

Q: And the “GoB hCB1” value (hCB1 [2]; Log [Compound] (M) -5.89285)?
A: 89.4387 and 75.2907

Q: What about the “Gi1 hCB1” value (hCB1 [2]; Log [Compound] (M) -6.31878) of the same molecule?
A: 83.354 and 71.8555

Q: And the “GoB hCB1” value (hCB1 [2]; Log [Compound] (M) -6.31878)?
A: 83.9538 and 76.1935

Q: What about the “Gi1 hCB1” value (hCB1 [2]; Log [Compound] (M) -6.72585) of the same molecule?
A: 79.6848 and 68.7673

Q: What about the “GoB hCB1” value (hCB1 [2]; Log [Compound] (M) -6.72585) of the same molecule?
A: 88.3597 and 69.9433

Q: What about the “Gi1 hCB1” value (hCB1 [2]; Log [Compound] (M) -7.14267) of the same molecule?
A: 72.1769 and 53.833

Q: And the “GoB hCB1” value (hCB1 [2]; Log [Compound] (M) -7.14267)?
A: 73.7932 and 56.1409

Q: What about the “Gi1 hCB1” value (hCB1 [2]; Log [Compound] (M) -7.55284) of the same molecule?
A: 51.6729 and 43.6499

Q: And the “GoB hCB1” value (hCB1 [2]; Log [Compound] (M) -7.55284)?
A: 61.8702 and 41.6614

Q: What about the “Gi1 hCB1” value (hCB1 [2]; Log [Compound] (M) -8) of the same molecule?
A: 32.3713 and 22.1909

Q: And the “GoB hCB1” value (hCB1 [2]; Log [Compound] (M) -8)?
A: 32.3776 and 21.4874

Q: What about the “Gi1 hCB1” value (hCB1 [2]; Log [Compound] (M) -8.22186) of the same molecule?
A: 19.0514 and 17.5665

Q: What about the “GoB hCB1” value (hCB1 [2]; Log [Compound] (M) -8.22186) of the same molecule?
A: 16.1566 and 14.2824

Q: And the “Gi1 hCB1” value (hCB1 [2]; Log [Compound] (M) -8.39794)?
A: 17.4789 and 12.7996

Q: And the “GoB hCB1” value (hCB1 [2]; Log [Compound] (M) -8.39794)?
A: 19.8252 and 10.1677

Q: And the “Gi1 hCB1” value (hCB1 [2]; Log [Compound] (M) -8.68787)?
A: 7.998 and 0.7635

Q: And the “GoB hCB1” value (hCB1 [2]; Log [Compound] (M) -8.68787)?
A: 1.86 and 2.6849

Q: And the “Gi1 hCB1” value (hCB1 [2]; Log [Compound] (M) -9.15521)?
A: 2.91 and 0.2884

Q: And the “GoB hCB1” value (hCB1 [2]; Log [Compound] (M) -9.15521)?
A: 1.788 and -5.44

Q: What about the “Gi1 hCB1” value (hCB1 [2]; Log [Compound] (M) -9.61989) of the same molecule?
A: 1.7386 and -5.445

Q: What about the “GoB hCB1” value (hCB1 [2]; Log [Compound] (M) -9.61989) of the same molecule?
A: -0.8737 and -6.308

Q: And the “Gi1 hCB1” value (hCB1 [2]; Log [Compound] (M) -10.0969)?
A: 1.245 and -4.415

Q: And the “GoB hCB1” value (hCB1 [2]; Log [Compound] (M) -10.0969)?
A: -2.852 and -5.544

Q: What about the “Gi1 hCB1” value (hCB1 [2]; Log [Compound] (M) -10.5529) of the same molecule?
A: 0.9678 and -3.3699

Q: And the “GoB hCB1” value (hCB1 [2]; Log [Compound] (M) -10.5529)?
A: -2.528 and -5.649

Q: What about the “Gi1 hCB1” value (hCB1 [2]; Log [Compound] (M) -11.0177) of the same molecule?
A: 2.371 and -4.415

Q: And the “GoB hCB1” value (hCB1 [2]; Log [Compound] (M) -11.0177)?
A: -2.294 and -7.871

Q: And the “Gi1 hCB1” value (hCB1 [2]; Log [Compound] (M) -11.4949)?
A: -0.1731 and -5.27

Q: And the “GoB hCB1” value (hCB1 [2]; Log [Compound] (M) -11.4949)?
A: 0.583 and -6.36

Q: And the “Gi1 hCB1” value (hCB1 [2]; Log [Compound] (M) -11.9208)?
A: 0.6903 and -3.196

Q: And the “GoB hCB1” value (hCB1 [2]; Log [Compound] (M) -11.9208)?
A: 1.158 and -6.864

Q: What about the “Gi1 hCB1” value (hCB1 [2]; Log [Compound] (M) -12.3979) of the same molecule?
A: 1.692 and -4.146

Q: And the “GoB hCB1” value (hCB1 [2]; Log [Compound] (M) -12.3979)?
A: 3.838 and -6.76

Q: And the “Gi1 hCB1” value (hCB1 [2]; Log [Compound] (M) -12.8861)?
A: 2.602 and -5.207

Q: And the “GoB hCB1” value (hCB1 [2]; Log [Compound] (M) -12.8861)?
A: -0.1004 and -5.944

Q: What about the “Gi1 hCB1” value (hCB1 [2]; Log [Compound] (M) -13) of the same molecule?
A: 1.677 and 3.693

Q: What about the “GoB hCB1” value (hCB1 [2]; Log [Compound] (M) -13) of the same molecule?
A: -0.7478 and -0.8395

Q: And the “Gi1 hCB1” value (hCB1 [2]; Log [Compound] (M) cell empty)?
A: -2.293

Q: What about the “GoB hCB1” value (hCB1 [2]; Log [Compound] (M) cell empty) of the same molecule?
A: -5.1625

Q: What about the “pEC50 [95% CI]” value (hCB1 [2]; hCB1 Gi1) of the same molecule?
A: 7.72 [7.6 – 7.8]

Q: And the “pEC50 [95% CI]” value (hCB1 [2]; hCB1 GoB)?
A: 7.8 [7.7 – 7.9]

Q: What about the “pEC50 [95% CI]” value (hCB1 [2]; hCB1 Gz) of the same molecule?
A: 7.5 [6.9 – 7.8]

Q: What about the EC50 (hCB1 [2]; hCB1 GoB) of the same molecule?
A: 18 nM

Q: What about the EC50 (hCB1 [2]; hCB1 Gz) of the same molecule?
A: 33 nM

Q: And the Emax (hCB1 [2]; read-out: Emax [95% CI], hCB1 Gi1)?
A: 82%

Q: And the Emax (hCB1 [2]; read-out: Emax [95% CI], hCB1 GoB)?
A: 83%

Q: What about the Emax (hCB1 [2]; read-out: Emax [95% CI], hCB1 Gz) of the same molecule?
A: 98%
